Source: ChEMBL document CHEMBL1157539, “Thousands of chemical starting points for antimalarial lead identification” (Nature, 2010)

tested on: Plasmodium falciparum; experiment: GSK_TCMDC: Inhibition of Plasmodium falciparum 3D7 in whole erythrocytes, using parasite LDH activity as an index of growth.; format: functional, organism-based; settings: Plasmodium falciparum, 3D7

In order of falling XC50:
1. Cc1ccc(Cn2cnc3cc(C(=O)Nc4ccc(-c5ccc(CN(C)C)cc5)cc4)ccc3c2=O)o1  1260 nM
2. Oc1ccc(CN2CCC(NCc3cccc4ccccc34)CC2)cc1  1200 nM
3. O=C(O)CCCN1CCCC(=C(c2ccccc2)c2ccccc2)C1  1190 nM
4. COc1ccc(CCN2CCC(CN(C)Cc3cnn(-c4ccccc4)c3)CC2)cc1  1160 nM
5. CCCCCN1CCCC1CNS(=O)(=O)c1ccc(C(=O)Nc2cccc(C(F)(F)F)c2)cc1 (centres undefined)  1060 nM
6. Cc1nc(C)c(CC(=O)Nc2ccc(-c3ccc(-c4nc5cc(C(F)(F)F)ccc5[nH]4)s3)cc2)s1  1030 nM
7. Clc1ccc(CNCC2CCN(CC3CCCCC3)CC2)cc1Cl  1000 nM
8. COCc1cccc(-c2cc(-c3ccc(S(C)(=O)=O)cc3)cnc2N)c1  1000 nM
9. CC(=O)N(C)c1cccc(C(=O)Nc2cccc(-c3ccc(-c4nc5cc(C(F)(F)F)ccc5[nH]4)cc3)c2)c1  1000 nM
10. C=C(C)CSc1nc2c(c(=O)n1Cc1ccco1)C1(CCCCC1)Cc1ccccc1-2  997 nM
11. COc1cc(C(=O)Nc2ccc(-c3nc4ccccc4[nH]3)cc2)cc(OC)c1OC  982 nM
12. CCOc1cc(C(=O)NCc2cccc(C(F)(F)F)c2)ccc1-c1nc2cc(Cl)ccc2[nH]1  977 nM
13. Cc1nn(CC(C)C)c2sc(C(=O)Nc3nc(-c4ccccn4)cs3)cc12  961 nM
14. Cc1ccc(Nc2ccnc3ccc(C(F)(F)F)cc23)cc1O  956 nM
15. COc1ccc(N2CCN(CCCCNC(=O)c3ccc(NC(=O)c4ccc(Cl)cc4)cc3)CC2)c(OC)c1  951 nM
16. CCc1ccc(C2CCN(CCCCNC(=O)c3ccc(-c4ccc(C#N)cc4)cc3)CC2)c(OCCO)c1  938 nM
17. CC(C)(C)c1ccc(CNC(=O)COc2ccc(-c3nnc(-c4cccc([N+](=O)[O-])c4)o3)cc2[N+](=O)[O-])cc1  926 nM
18. CCn1cc(C(=O)O)c(=O)c2cc(F)c(N3CCN(S(=O)(=O)c4ccc(N)cc4)CC3)cc21  922 nM
19. Fc1cccc(COc2ccc(Nc3ncnc4sc(C#C[C@H]5CC[C@H](CN6CCOCC6)N5)cc34)cc2Cl)c1  920 nM
20. CCOc1cc(C)ccc1C1CCN(CCCCNC(=O)c2coc(-c3ccc(Cl)cc3)c2)CC1  914 nM
21. CC(C)CCNC(=O)C1Cc2c([nH]c3cc(Br)ccc23)C2(CCN(CCc3ccccc3)CC2)N1 (centres undefined)  910 nM
22. O=C(Nc1ccc(Cl)cc1)c1cccc(S(=O)(=O)NC2CCN(CC3CCCCC3)C2)c1 (centres undefined)  905 nM
23. COc1ccc(OCC(=O)Nc2cc(-c3nc4ccccc4[nH]3)ccc2Cl)cc1  903 nM
24. O=C(Nc1cccc(C(F)(F)F)c1)Nc1ccc(Cl)c(C(F)(F)F)c1  890 nM
25. CC(C)CN1CCCN(Cc2cccc(NC(=O)c3ccc(-c4ccccc4)cc3)c2)CC1  883 nM
26. CC(C)CNC(=O)c1cncc(-c2ccc(CN(C)C3CCN(C)CC3)cc2)c1  878 nM
27. COc1ccc(CN2CCCC(N3CC4(OC3=O)c3ccccc3-c3ccccc34)C2)c(O)c1 (centres undefined)  873 nM
28. O=C(Nc1ccc(Cn2ncc(N3CCCNCC3)c(Cl)c2=O)cc1)Nc1cc(Cl)cc(Cl)c1  866 nM
29. Cc1cc(Nc2cccc(C#N)c2)nc(Nc2ccccc2C)n1  861 nM
30. CN1CCN(CCCNc2ncc3c(-c4ccc(NC(=O)Nc5cc(C(F)(F)F)ccc5F)c(F)c4)nn(C)c3n2)CC1  859 nM
31. CC1CN(Cc2cccc(-c3ccc(-c4nc5ccccc5[nH]4)cc3)c2)CC(C)O1 (centres undefined)  857 nM
32. O=C(O)Cc1ccc(-c2c[nH]c3ncc(-c4cccc5ncccc45)cc23)cc1  847 nM
33. COc1ccc2c(=NN=CC=Cc3ccccc3)cc(C)[nH]c2c1  842 nM
34. COc1ccc(NC(=O)c2ccc(-c3nc(-c4cccc(C(F)(F)F)c4)cs3)cc2)cc1N1CCN(C)CC1  818 nM
35. Cc1ccccc1C1CCN(C2CCC(NC(=O)/C=C/c3c[nH]c4ccccc34)CC2)CC1 (centres undefined)  810 nM
36. COc1ccc(CNC2CCN(C)CC2)cc1-c1ccc(S(=O)(=O)NCC2CCCO2)s1 (centres undefined)  800 nM
37. N#Cc1cccc(COC(=O)C2=C(COc3ccccc3Cl)NC(=O)NC2c2c[nH]c3cnccc23)c1 (centres undefined)  792 nM
38. O=C(Nc1ccc(-c2ccc(-c3nc4ccccc4[nH]3)s2)cc1)c1ccncc1  789 nM
39. O=C(/C=C/c1ccc(Cl)c(Cl)c1)NCCCCCN1CCCC(C(=O)Nc2ccc(Cl)c(Cl)c2)C1 (centres undefined)  785 nM
40. CN1c2ccc([N+](=O)[O-])cc2C(C)(C)C12C=Cc1cc(Br)cc([N+](=O)[O-])c1O2 (centres undefined)  785 nM
41. COc1ccc2nccc([C@@H](O)CN3CCC(NCc4cn5cc(F)ccc5n4)CC3)c2c1  784 nM
42. O=C(Nc1cccc(CN2CCN(C(=O)c3cccc(F)c3)CC2)c1)c1ccco1  775 nM
43. CCOC(=O)CNC(=O)N(CCN(Cc1ccccc1)C(=O)NCC(=O)OCC)Cc1ccccc1  769 nM
44. Cc1cccc2nc(-c3cccc(-c4cccc(CN5CCCC5CN)c4)c3)[nH]c12 (centres undefined)  767 nM
45. O=[N+]([O-])c1cccc(-c2nc(-c3ccc(Br)cc3)[nH]c2-c2ccc(Br)cc2)c1  759 nM
46. Cc1cc(NC(=O)CCCN2CCN(c3cccc(Cl)c3Cl)CC2)ccc1N1CCN(C(C)C)CC1  757 nM
47. Cc1cccc2nc(-c3ccc(-c4cccc(CN5CC(C)OC(C)C5)c4)s3)[nH]c12 (centres undefined)  757 nM
48. CCOc1cc(C)c(C2CCN(CCCCNC(=O)c3ccc(NC(=O)c4ccc(Cl)cc4)cc3)CC2)cc1C  739 nM
49. CCOc1ccc2[nH]c(C)cc(=NN=Cc3ccccc3F)c2c1  738 nM
50. CN(C)CCNCc1ccc(-c2cccc(-c3nc4ccccc4[nH]3)c2)cc1  717 nM
51. COc1ccc2c(NN=Cc3cccc(Cl)c3)ccnc2c1  716 nM
52. O=C(Nc1ccc(Cn2nc(Cl)c(N3CCCNCC3)cc2=O)cc1)c1ccc(-c2ccccc2)cc1  713 nM
53. COc1ccc2ccccc2c1CNCCCCCCNCc1c(OC)ccc2ccccc12  712 nM
54. O=[N+]([O-])c1ccccc1/C=N/Nc1ccnc2ccc(C(F)(F)F)cc12  710 nM
55. COc1ccc(-c2cccc(NC(=O)c3cccs3)c2)cc1CN1CCCN(C)CC1  698 nM
56. O=C(NC1CCCc2ccccc21)[C@@H]1CCCN1C(=O)c1ccc(O)c(-c2cccc([N+](=O)[O-])c2)c1 (some centres undefined)  678 nM
57. CC(Cc1ccc(C(=O)N2CCN(C(=O)c3ccc(CC(C)NCCc4cccc(Cl)c4)cc3)CC2)cc1)NCCc1cccc(Cl)c1 (centres undefined)  677 nM
58. CC1(C)[C@H]2CC[C@@H](CNc3nc(NCCc4c[nH]cn4)nc(Nc4ccc(Oc5ccccc5)cc4)n3)[C@@H]1C2  672 nM
59. O=C(Cn1c(CCc2cccc(F)c2F)cc(=O)c2cccnc21)N(CCn1ccnc1)Cc1ccc(-c2ccc(C(F)(F)F)cc2)cc1  672 nM
60. CN1CCc2cc(Br)c(O)cc2C1Cc1ccccc1Cl (centres undefined)  667 nM
61. NC1CCCN(Cc2ccc(-c3cccc(-c4nc5cc(F)ccc5[nH]4)c3)cc2)C1 (centres undefined)  640 nM
62. COc1ccc2nccc([C@@H](O)CN3CCC(NCc4cc5ccccc5[nH]4)CC3)c2n1  628 nM
63. CCOC(=O)NCC(=O)Nc1cccc(-c2cccc(-c3nc4cc(C(F)(F)F)ccc4[nH]3)c2)c1  626 nM
64. COc1ccc(CN2CCCC(OC(c3ccc(F)cc3)c3ccc(F)cc3)C2)c(O)c1 (centres undefined)  607 nM
65. O=C(CCn1c2ccccc2c2ccccc21)NN=Cc1ccco1  588 nM
66. COc1cc2nc(N3CCN(C(=O)c4c(Cl)nsc4-c4ccccc4Cl)CC3)nc(N)c2cc1OC  534 nM
67. COc1cc(C(C)C)ccc1C1CCN(CCCCNC(=O)c2ccc(NC(=O)c3ccc(Cl)cc3)cc2)CC1  449 nM
68. COc1cc2c(cc1NC(=O)CN1CCN(C(=O)c3ccco3)CC1)oc1ccccc12  422 nM
69. O=C(NC1CCN(CC2(c3ccc(Cl)cc3)CCC2)CC1)c1cc[nH]n1  421 nM
70. COC(=O)c1cccc(CNCc2ccc(-c3ccc(-c4nc5cccc(C)c5[nH]4)s3)cc2)c1  402 nM
71. c1ccc(-c2ccc(CNCc3ccc(-c4cccc(-c5nc6ccccc6[nH]5)c4)cc3)s2)nc1  396 nM
72. COc1ccc2c(NN=Cc3ccccn3)ccnc2c1  374 nM
73. CCN1CCC(N(Cc2ccc(-c3ccc(C(F)(F)F)cc3)cc2)C(=O)Cn2c(CCc3cccc(F)c3F)cc(=O)c3ccc(OCc4ccccc4)cc32)CC1  368 nM
74. O=C(Nc1ccc(Cl)cc1C(=O)Nc1cccc(F)c1)c1ccc([N+](=O)[O-])cc1  365 nM
75. NC(=O)c1ccc(-n2cnc3cc(F)ccc32)cc1OCc1ccccc1C(F)(F)F.NC(=O)c1ccc(-n2cnc3ccc(F)cc32)cc1OCc1ccccc1C(F)(F)F  363 nM
76. CC(C)CCN1CCC(Oc2ccc(NC(=O)c3cccs3)cc2Cl)CC1  341 nM
77. O=C(Nc1ccc(OC2CCN(Cc3ccccc3)CC2)c(Cl)c1)c1cccs1  312 nM
78. CCN(C(=O)NC)C1c2cc(C#N)ccc2OC(C)(C)C1O (centres undefined)  304 nM
79. COc1ccc2nc(C)cc(Nc3ccc(Oc4ccc(Br)c5ccccc45)c(Cl)c3)c2c1  277 nM
80. CCOC(=O)c1ccc(NC(=O)Nc2ccc(-c3ccc(-c4nc5cc(C(F)(F)F)ccc5[nH]4)cc3)cc2)cc1  273 nM
81. CCN(CC)CCNc1ccnc2[nH]c3ccc(Cl)cc3c12  245 nM
82. COc1ccc2nccc(N3CCC(CCNCc4ccc5c(n4)NC(=O)CS5)CC3)c2c1  209 nM
83. CNCCNCc1cccc(-c2cccc(-c3nc4cc(C(F)(F)F)ccc4[nH]3)c2)c1  203 nM
84. CCCCC(CC)CN1C(=O)C(c2ccccc2)(c2ccccc2)N=C1N (centres undefined)  189 nM
85. O=C(NC1CCN(c2ccnc3cc(Cl)ccc23)C1)c1ccc(F)cc1 (centres undefined)  187 nM
86. c1ccc2[nH]c(-c3ccc(-c4ccc(CN5CCN(c6ccncc6)CC5)cc4)cc3)nc2c1  164 nM
87. COc1cc(F)c2ncc(Cl)c([C@H](O)CN3CCC(NCc4ccc5c(n4)NC(=O)CO5)CC3)c2c1  161 nM
88. COc1cccc(Nc2nc(NCCO)c3ccccc3n2)c1  151 nM
89. COc1ccc(CNCc2ccc(-c3cccc(-c4nc5cc(C(F)(F)F)ccc5[nH]4)c3)cc2)cc1  151 nM
90. Cc1sc2cc(Cl)cc(Cl)c2c1S(=O)(=O)Nc1ccc2nccc(N3CCNCC3)c2c1  124 nM
91. CCC[C@@H]([C@@H](CC1CCCCC1)C(=O)N[C@H](C(=O)Nc1nccs1)C(C)(C)SCCOCCOCC)N(O)C=O  82.2 nM
92. COc1cc(Nc2nccc(-c3c(-c4cccc(NC(=O)c5c(F)cccc5F)c4)nn4ccccc34)n2)cc(OC)c1OC  77.3 nM
93. CC[C@H]1CN2CC[C@H]1C[C@H]2[C@H](O)c1cc(N2CCCC(C(=O)N(CC)CC)C2)nc2ccc(OC)cc12 (some centres undefined)  73.1 nM
94. FC(F)(F)c1ccc2c(NCCNc3ccnc4cc(C(F)(F)F)ccc34)ccnc2c1  32.7 nM
